Consider two molecules from patent publication US11707442B2, “Antibacterial and antifungal compounds” (The General Hospital Corporation, priority 2015, dated 2023).

“Also recorded” adds a separate entry of the source.

The subject of assay [1] is MRSA strain MW2. Briefly: Checkerboard assay (combination). Particulars: result in words. It counts as cell-based, Staphylococcus aureus. How it is done:
(§1) Checkerboard assay (e.g., antibiotic synergy test): The antimicrobial or antifungal activity of a combination of a compound of present application with other agents was determined through a checkerboard assay. The checkerboard method for determining synergy of synthetic retinoids with conventional antibiotics can be conducted, for example, as previously described (See, e.g., Rajamuthiah, R. et al. A defensin from the model beetle Tribolium castaneum acts synergistically with telavancin and daptomycin against multidrug resistant Staphylococcus aureus. PLoS ONE 10, e0128576 (2015)) The compounds whose combinations were being tested were arrayed in serial concentrations, vertically for one compound and horizontally for the other compound in the same 96 well microplate. 2-fold serial dilutions of each retinoid were combined with 2-fold serial dilutions of each conventional antibiotic, which created an 8×8 matrix in a 96-well microtiter plate. The rest of the procedure involving addition of pathogen and measurement of growth was carried out as described for measurement of MIC.
The Fractional Inhibitory Concentration (FIC) index for two compounds, A and B, is defined by the following equation: FIC=((A/MIC^A)+(B/MIC^B)). MIC^A and NIC^B are MICs of compound A or B respectively. (A) is the lowest concentration of compound A in combination with compound B that inhibits growth of a pathogen and (B) is the lowest concentration of compound B that inhibits growth of a pathogen.
Optical densities at 600 nm were measured after 18 h of incubation at 37° C. The results represent three independent experiments.

Assay [2] concerns E. faecium. The assay is described as follows: Checkerboard assay with glutathione. It counts as cell-based, Enterococcus faecium. Particulars: result in words. How it is done:
as §1
(§2) The Fractional Inhibitory Concentration (FIC) index for two compounds, A and B, is defined by the following equation: FIC=((A/MIC^A)+(B/MIC^B)). MIC^A and NIC^B are MICs of compound A or B respectively. […]

Assay [3] has as its system C. parapsilosis. Briefly: Disc clearing assay. Type of assay: cell-based, Candida parapsilosis. The following applies: result in words. How it is done: (§3) Disc clearing assay: The disc diffusion test was performed on Mueller Hinton (MH) agar plates for bacterial cultures and yeast extract, peptone, dextrose (YPD) for fungal cultures. The assay was repeated 3 times. Discs were soaked in 10 μl of either DMSO or 10 mg/ml compound stock solution and air-dried. Three hundred microliters of an overnight culture of bacteria or fungi were spread on plates. After completely drying the agar plate in a laminar flow hood, DMSO or compound impregnated discs were overlaid on the plate and incubated at 35° C. for 18 hrs.

Assay [4] relates to C. albicans. The assay is described as follows: Static versus cidal assessment (MFC). Type of assay: cell-based, Candida albicans. The following applies: result in words. As for the experimental part: The minimum fungicidal concentration was (MFC) was determined as follows: 10 μl of yeast culture from each micro-well of the MIC assay was plated on YPD agar and incubated at 35° C. overnight. The lowest compound concentration at which there was no fungal colony growth was considered the MFC.

The subject of assay [5] is C. albicans biofilm. The assay is described as follows: Biofilm growth on silicone pads. It counts as cell-based, Candida albicans. The following applies: result in words. How it is done:
C. albicans were grown in YPD medium overnight at 30° C., diluted to an OD600 of 0.5 in 2 mL Spider medium, and added to a well of a sterile 12-well plate containing a silicone pad measuring 1.5×1.5 cm that had been pretreated overnight with bovine serum (Sigma-Aldrich). The inoculated 12-well plate was incubated with gentle agitation (150 rpm) for 90 min at 37° C. for adhesion to occur. The samples were washed with 2 ml PBS, and after the 90-min incubation, and PBS wash, auranofin was added to fresh media at 4 μg/ml (n=4), 8 μg/ml (n=4), 16 μg/ml (n=4), and 32 μg/ml (n=4).
Control groups were included that contained C. albicans alone in Spider medium without auranofin (n=4) and a negative control group of Spider medium without any fungal cells (n=4).
The silicone pads with biofilm were removed from the wells, dried overnight, and weighed the following day. The total biomass (mg) of each biofilm was calculated by subtracting the weight of the platform material prior to biofilm growth from the weight after the drying period and adjusting for the weight of a control pad exposed to no cells.
Statistical significance among the different groups was determined by the analysis of variance (ANOVA) and the Tukey test using the Graph Pad Prism Program.

In assay [6] the test system is S. aureus. Briefly: Disc clearing assay. The following applies: result in words. It counts as cell-based, Staphylococcus aureus. How it is done:
as §3
The disc diffusion test was carried out in triplicate on cation-adjusted Miller-Hinton agar. 6 mm discs were impregnated with 50 μg of compounds and air-dried. Three hundred microliters of an overnight S. aureus MW2 culture was spread on an agar plate and air-dried. The antimicrobial discs were overlaid on the plate and incubated at 37° C. for 20 hrs.

For assay [7], the system named is C. neoformans. Briefly: Disc clearing assay. The following applies: impregnated filter; result in words. It counts as cell-based, Cryptococcus neoformans. How it is done: as §3
Assay [8] deals with S. aureus, E. faecium, and A. baumannii. The assay is described as follows: Static versus cidal assessment (MBC). Particulars: result in words. Type of assay: cell-based. How it is done:
Static versus cidal assessment: The minimum bactericidal concentration (MBC) was determined as follows: 10 μl of bacterial culture from each micro-well of the MIC assay was plated on MH agar and incubated at 35° C. overnight. The lowest compound concentration at which there was no bacterial colony growth was considered the MBC.

The subject of assay [9] is C. glabrata. The assay is described as follows: Disc clearing assay. It counts as cell-based, Candida glabrata. The following applies: result in words. As for the experimental part: as §3
Assay [10] deals with C. tropicalis. Briefly: Disc clearing assay. Type of assay: cell-based, Candida tropicalis. The following applies: result in words. As for the experimental part:
as §3

The subject of assay [11] is A. baumannii. Briefly: Disc clearing assay. It counts as cell-based, Acinetobacter baumannii. Particulars: result in words. How it is done:
as §3

Assay [12] concerns E. faecium. Briefly: Disc clearing assay. The following applies: result in words. Type of assay: cell-based, Enterococcus faecium. As for the experimental part: as §3
The test system of assay [13] is E. faecalis. Briefly: Disc clearing assay. Type of assay: cell-based, Enterococcus faecalis. The following applies: result in words. How it is done:
as §3

Assay [14] is described as follows: Checkerboard assay of auranofin with amphotericin B and fluconazole. Type of assay: cell-based. Particulars: result in words. How it is done:
as §1, §2

The test system of assay [15] is C. neoformans. Briefly: Checkerboard assay with oxidizing agents. It counts as cell-based, Cryptococcus neoformans. The following applies: result in words. How it is done: as §1, §2
Assay [16] has as its system B. subtilis. The assay is described as follows: Disc clearing assay. It counts as cell-based, Bacillus subtilis. The following applies: result in words. As for the experimental part: as §3

For the molecule `N[C@@H](CCC(=O)N[C@@H](CS)C(=O)NCC(=O)O)C(=O)O` [Glutathione], the “inhibition of S. aureus by the agent alone” value in [1] was “did not inhibit”. The “inhibition of E. faecium by the agent alone” value in assay [2] was “did not inhibit”.

Take `CC[P](CC)(CC)=[Au][S][C@@H]1O[C@H](COC(C)=O)[C@@H](OC(C)=O)[C@H](OC(C)=O)[C@H]1OC(C)=O` [Auranofin, 2,3,4,6-tetra-o-acetyl-1-thio-D-glucanpyranosato-S-(triethyl-phosphine)-gold]: the “zones of inhibition, C. parapsilosis” value in assay [3] is “zones of inhibition”. Also, the “static versus cidal activity against C. albicans” value in assay [4] is listed as “fungistatic”. The “C. albicans biofilm formation” value in [5] is “not significantly reduced”. The “zone of inhibition, S. aureus” value in assay [6] is on record as “zone of inhibition”. In assay [7], the “clearing of C. neoformans” value is “clearing”. In addition, in assay [8], the “static versus cidal nature of the inhibition” value was “bacteriostatic at the MIC concentration but bactericidal at higher concentrations”. Moreover, in [9], the “zones of inhibition, C. glabrata” value was “zones of inhibition”. The “zones of inhibition, C. tropicalis” value in assay [10] was “zones of inhibition”. In addition, the “zone of inhibition, A. baumannii” value in [11] is reported as “zone of inhibition”. For the same molecule, in assay [12], the “zone of inhibition, E. faecium” value was “zone of inhibition”. Also, the “zone of inhibition, E. faecalis” value in assay [13] is reported as “clearing; also recorded: zone of inhibition”. The “interaction with hydrogen peroxide” value in assay [1] (S. aureus) is recorded as “did not provide any synergistic activity”. Besides, the “interaction with amphotericin B and fluconazole” value in assay [14] is given as “additive effects but not synergism”. Moreover, in assay [15], the “MIC change in the presence of menadione” value is listed as “no change in MIC”; the “interaction with diamide and hydrogen peroxide” value was “additive effect”. In assay [16], the “zone of inhibition, B. subtilis” value is on record as “clearing; also recorded: zone of inhibition”.
